Experimental data published in patent publication US20160015064A1, “COMPOUNDS, COMPOSITIONS, AND METHODS FOR MODULATING SWEET TASTE” (CHROMOCELL CORPORATION, priority 2013, published 2016).

Tests used:
[1] = tested on: perception of sweet taste, in an aqueous solution; assay: Inherent sweetness assessment, difference from control sip and spit method; assay type: in vivo, humans; details: no sweetener
Method: The aqueous sucrose solutions were prepared by adding, sucrose (by weight), to water to achieve the desired concentration.
Compounds were first prepared as a 500-fold concentrated stock solution in 100% ethanol. These concentrated stocks were then added to water to result in a final ethanol concentration of 0.2%. The control (including positive control) samples were also normalized to 0.2% ethanol. This level of ethanol was not seen to contribute any perceived sweetness.
The intrinsic effect of test compounds on the perception of sweet taste, in an aqueous solution, in humans was evaluated using a difference from control “sip and spit” method employing a verbal category scale.
In this method, panelists (n=12) evaluate one pair of samples at a time—one sample contains water plus compound (i.e. test) while the other contains water without compound (i.e. control). Panelists were instructed to first taste the un-blinded control followed by the test sample and asked to rate the size of sweetness difference between the test and control sample, using a 6 point verbal category scale:
Verbal category scale • No difference • Slight difference • Slight/moderate difference • Moderate difference • Moderate/large difference • Very large difference
4 blinded controls comprising of one negative control (0% sucrose) and 3 positive control samples (0.5% sucrose, 1% sucrose and 2% sucrose) were also included as part of the test to evaluate the ability of panelists to rank the difference in sweetness perception between 0.5% sucrose, 1% sucrose and 2% sucrose compared to 0% sucrose control.
Panelists were instructed not to eat or drink (except water) for at least 1 h before the test. During the test, panelists were instructed to sip each sample, swirl it around their mouth and then expectorate. Panelists cleansed their palates by rinsing with water, eating a cracker and waiting for an interval of about 5 minutes. All samples were tasted at ambient temperatures.
The verbal category response for each test sample was converted into an integer numerical value, from 1 to 6 (e.g. no difference=1 and very large difference=6). Total numbers of panelist responses per integer value were plotted as a histogram. An assessment was then made, comparing mean, mode of the numerical value, and the distribution of the histogram plots, for test samples as compared to that of the positive (0.5% sucrose, 1% sucrose and 2% sucrose) and negative control (0% sucrose) sample. Inherent sweetness levels are then correlated to the positive controls as discrete bins: • Bin 1: 0% sucrose • Bin 2: >0% sucrose—<0.5% sucrose • Bin 3: 0.5% sucrose • Bin 4: >0.5% sucrose—<1% sucrose • Bin 5: 1% sucrose • Bin 6: >1% sucrose—<2% sucrose • Bin 7: 2% sucrose

[2] = tested on: perception of the sweet taste in an aqueous environment; assay: Trained descriptive analysis (DA) panel, sweet attribute; assay type: in vivo, humans; details: for DA Panel Average Sweetness Intensity Score (on 15 cm scale) / Fold enhancement of sweetness perception as compared to control sweetener solution / Perceived inherent sweetness compared to solubilizing agent alone / Perceived sweetness compared to solubilizing agent alone (inherent sweetness): 35 ppm compound plus solubilizing agent; for Perceived inherent sweetness compared to solubilizing agent alone: citric acid-citrate solution pH 3; for Compound effects beyond the additive effect of inherent sweetness: 4% fructose and 8% sucrose; for Compound effects beyond the additive effect of inherent sweetness / Perceived sweetness vs control sweetener solutions (FIG. 2) / Perceived sweetness vs control sweetener solutions (FIG. 1): 35 ppm; for Perceived sweetness vs control sweetener solutions (FIG. 2) / Perceived sweetness vs control sweetener solutions (FIG. 1): fructose and sucrose, ** p<0.01; for Perceived sweetness compared to solubilizing agent alone (inherent sweetness): water pH 7
Method: The effect of the test compounds on the perception of the sweet taste in an aqueous environment, in the absence or presence of carbohydrate sweeteners, was evaluated using a descriptive analysis methodology with a group of trained panelists, as follows.
Candidate panelists were recruited, with prescreening and personal interviews, and were assessed for their ability to detect, recognize and differentiate basic taste attributes or mixtures thereof as part of a standardized acuity test. These candidate panelists were also assessed for their innate ability to identify flavors, and to rank on intensity scales. Other senses such as smell and vision were also included as part of the assessment. Candidates also were screened for their ability to use the language to describe and articulate ideas.
Selected candidates proceeded to training as a group in three phases: (1) Lexicon development, (2) Concept alignment, and (3) Scaling descriptors. During lexicon development, panelists evaluated products appropriate for use in the study to generate and align on terms describing the flavor, taste, aromatic, trigeminal, and temporal attributes. During concept alignment, the panel evaluated the products mentioned above to clarify and confirm the attributes that were generated during lexicon development using reference standards that appropriately define each attribute; these are either physical references (e.g. sucrose solutions) or verbal descriptions (e.g. overall flavor). Product terms and concepts were validated during this portion of the study.
In the last phase, scaling descriptors, the panel participated in a series of exercises focused on ordering and ranking samples according to relative attribute intensity, measuring attribute intensity using a defined length of line scale. Whenever possible, different levels or concentration of references were used as anchors to facilitate use of the scale. Panelists were provided with blinded references at this stage to evaluate their understanding and perception of the scale.
The panel used in this example was trained to reference sweet attributes in an absolute manner, such that a particular concentration of sweetener is always measured by the panelists at the same point using a 15 cm line scale where each cm represents a 1% increase in sucrose to cover the range of 0% to 15% sucrose. For the rest of the attributes, the panel was trained using a hybrid approach between descriptive analysis methods (e.g. quantitative descriptive analysis, the sensory spectrum, etc.) well-known to those skilled in the art.
The trained panel was then used for a descriptive analysis assessment for Compounds 1, 2 and 3 in aqueous solutions at pH 3 and pH 7. Each of the three compounds was tested at 35 ppm in sucrose and fructose sweeteners. In addition, Compounds 1, 2 and 3 were also examined in water at pH 3 and pH 7 to assess for any inherent sweetness.
The aqueous sweetener solutions were prepared by adding, fructose or sucrose (by weight), to water to achieve the desired concentration. Aqueous sucrose solutions at pH 3 were buffered using a final concentration of 0.096% Citric Acid plus 0.036% Sodium Citrate while aqueous fructose solutions at pH 3 were buffered using a final concentration of 0.06% Citric Acid and 0.0225% Sodium Citrate.
Compounds were first prepared as a […] concentrated stock solution in 100% ethanol. These concentrated stocks were then added to the aqueous sweetener solutions to result in a final ethanol concentration of 0.2%. In addition to compounds, a solubilizing agent at a final concentration of 0.02% was added to the aqueous sweetener solutions. Control samples were also balanced with 0.2% ethanol and in certain cases 0.02% solubilizing agent.
Both control (aqueous sweetener solutions without compound) and variant (aqueous sweetener solutions with compound) samples were blinded and randomized (by sweetener and pH blocks). […]

[3] = citric acid-citrate solution pH 3, no sweetener
[4] = water pH 7, no sweetener, 1 cm = 1% sucrose

Structure (SMILES)	Correlated Inherent Sweetness Assessment ([1]; compound 10 ppm in water)	Correlated Inherent Sweetness Assessment ([1]; compound 15 ppm in water) [% sucrose]	DA Panel Average Sweetness Intensity Score (on 15 cm scale) ([2]; 4% fructose, pH 3)	Fold enhancement of sweetness perception as compared to control sweetener solution ([2]; 4% fructose, pH 3) [X]	DA Panel Average Sweetness Intensity Score (on 15 cm scale) ([2]; 4% fructose, pH 7)	Fold enhancement of sweetness perception as compared to control sweetener solution ([2]; 4% fructose, pH 7) [X]	DA Panel Average Sweetness Intensity Score (on 15 cm scale) ([2]; 8% sucrose, pH 3)	Fold enhancement of sweetness perception as compared to control sweetener solution ([2]; 8% sucrose, pH 3) [X]	DA Panel Average Sweetness Intensity Score (on 15 cm scale) ([2]; 8% sucrose, pH 7)	Fold enhancement of sweetness perception as compared to control sweetener solution ([2]; 8% sucrose, pH 7) [X]	DA Panel Average Sweetness Intensity Score (on 15 cm scale) [2, 3]	Perceived inherent sweetness compared to solubilizing agent alone [2]	Compound effects beyond the additive effect of inherent sweetness ([2]; pH 3)	Perceived sweetness vs control sweetener solutions (FIG. 2) ([2]; pH 3)	Compound effects beyond the additive effect of inherent sweetness ([2]; pH 7)	Perceived sweetness vs control sweetener solutions (FIG. 1) ([2]; pH 7)	DA Panel Average Sweetness Intensity Score (on 15 cm scale) [2, 4]	Perceived sweetness compared to solubilizing agent alone (inherent sweetness) [2]
COc1ccc(C2CC(=O)c3c(O)cccc3O2)cc1O (single isomer, unassigned) [Compound 3, 5-hydroxy-2-(3-hydroxy-4-methoxyphenyl)chroman-4-one]	0.5%-1% sucrose	1	7.09	1.41	7.08	1.62	9.23	1.28	10.22	1.36	1.58	do not show further significant increase in perceived inherent sweetness	super-additive effects	significant increase in perceived sweetness	super-additive effects	significant increase in perceived sweetness	1.58	further increase in perceived sweetness
COc1ccc(C2CC(=O)c3c(O)cccc3O2)cc1O (single isomer, unassigned) [Compound 2, 5-hydroxy-2-(3-hydroxy-4-methoxyphenyl)chroman-4-one]	0.5%-1% sucrose	1	6.93	1.38	7.08	1.62	9.21	1.28	10.15	1.35	1.27	do not show further significant increase in perceived inherent sweetness	super-additive effects	significant increase in perceived sweetness	super-additive effects	significant increase in perceived sweetness	1.76	further increase in perceived sweetness
